One assay deals with T1, human β3 adrenergic receptor (Homo sapiens, UniProt P13945).
T1 construct: expressed in transfected cells; host or cells: Chinese hamster ovary (CHO) cells, stably transfected
T1 sequence (P13945 whole entry): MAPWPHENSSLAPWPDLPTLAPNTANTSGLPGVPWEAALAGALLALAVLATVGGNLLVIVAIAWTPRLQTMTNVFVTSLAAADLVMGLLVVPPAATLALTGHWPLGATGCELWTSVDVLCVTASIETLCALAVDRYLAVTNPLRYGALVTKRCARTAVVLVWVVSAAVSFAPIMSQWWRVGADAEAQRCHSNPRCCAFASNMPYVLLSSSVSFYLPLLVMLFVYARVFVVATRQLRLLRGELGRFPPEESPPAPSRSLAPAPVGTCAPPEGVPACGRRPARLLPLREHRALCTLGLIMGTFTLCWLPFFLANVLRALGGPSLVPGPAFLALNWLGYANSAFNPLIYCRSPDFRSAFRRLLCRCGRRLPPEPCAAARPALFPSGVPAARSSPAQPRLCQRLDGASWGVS
Kind of assay: Beta-3 agonist in vitro functional assay: cAMP production (LANCE TR-FRET) in CHO cells stably transfected with the cloned β3 receptor. The format is cell-based. The note with it: Table 4; cAMP, CHO cells; read-out: Human β3 agonist functional activity. The essentials:
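CHO cells stably expressing the cloned receptor, in HEPES-buffered HBSS with BSA and 0.6 mM IBMX, 6,000 cells/well, exposed to compound for 30 min at RT. cAMP read by LANCE TR-FRET against a cAMP standard curve. Isoproterenol defines maximal stimulation.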
(In general: Cyclic AMP is a second messenger, typically raised through Gs and lowered through Gi signalling.)
With `O=C(c1ccc(C[C@@H]2CC[C@H]([C@H](O)c3ccccc3)N2)cc1)N1CCCCC1c1nccs1` (stereo partly shown) [Example 50], the EC50 was in the range of 100 to 999 nM. With `O=C(c1ccc(C[C@@H]2CC[C@H]([C@H](O)c3ccccc3)N2)cc1)N1CC2CC(n3nccn3)CC2C1` (stereo partly shown) [Example 20], the EC50 was 10 to 99.9 nM. Consider `O=C(OCc1ccccc1)N1CC2(C1)CN(C(=O)c1ccc(C[C@@H]3CC[C@H]([C@H](O)c4ccccc4)N3)cc1)C2` [Example 5], for which the EC50 was 100 to 999 nM. Same read-out and setting: the figure for `O=C(c1ccc(C[C@@H]2CC[C@H]([C@H](O)c3ccccc3)N2)cc1)N1CC(Oc2cncc(Cl)n2)C1` [Example 3] is 100 to 999 nM; for `Cc1nonc1C1CCCN1C(=O)c1ccc(C[C@@H]2CC[C@H]([C@H](O)c3ccccc3)N2)cc1` (stereo partly shown) [Example 14] it is 100 to 999 nM; for `O=C(c1ccc(C[C@@H]2CC[C@H]([C@H](O)c3ccccc3)N2)cc1)N1CCCC(S(=O)(=O)c2ncc(Br)s2)C1` (stereo partly shown) [Example 38] it is 10 to 99.9 nM. Still for that read-out and setting: the figure for `O=C(c1ccc(C[C@@H]2CC[C@H]([C@H](O)c3ccccc3)N2)cc1)N1CC2CN(Cc3ccccn3)CC2C1` (stereo partly shown) [Example 17] is 100 to 999 nM; for `CCOC(=O)C1(S(C)(=O)=O)CCCN(C(=O)c2ccc(C[C@@H]3CC[C@H]([C@H](O)c4ccccc4)N3)cc2)C1` (stereo partly shown) [Example 36] it is 10 to 99.9 nM; for `C[C@@H]1CN(C(=O)c2ccc(C[C@@H]3CC[C@H]([C@H](O)c4ccccc4)N3)cc2)CC[C@H]1n1cccn1` [Example 61] it is 100 to 999 nM.

Staying with this assay, now noted: Table 5; cAMP, CHO cells; read-out: Human β3 agonist functional activity.
`CC(Oc1ccncn1)C1CCN(C(=O)c2ccc(C[C@@H]3CC[C@H]([C@H](O)c4ccccc4)N3)cc2)CC1` (stereo partly shown) [Example 167]: the EC50 was in the range of 100 to 999 nM. For the molecule `O=C(c1ccc(C[C@@H]2CC[C@H]([C@H](O)c3ccccc3)N2)cc1)N1CCC(n2cncn2)CC1` [Example 92], the EC50 is 10 to 99.9 nM. Same read-out and setting: the figure for `O=C(c1ccc(C[C@@H]2CC[C@H]([C@H](O)c3ccccc3)N2)cc1)N1CCC(c2nnc(-c3cnccn3)[nH]2)CC1` [Example 81] is 100 to 999 nM; for `O=C(c1ccc(C[C@@H]2CC[C@H]([C@H](O)c3ccccc3)N2)cc1)N1CCC(S(=O)(=O)c2ccc(F)cc2F)CC1` [Example 139] it is 10 to 99.9 nM.

Staying with this assay, now noted: Table 7; cAMP, CHO cells; ranges as given for Tables 6 and 7; read-out: Human β3 agonist functional activity.
With `O=C(O)C1C2CN(C(=O)c3ccc(CC4CCC(C(O)c5ccccc5)N4)cc3)CC21` (stereo not shown) [Example 231], the EC50 is 100 to 999 nM. Still for that read-out and setting: then `N#CC1(c2ccccn2)C2CN(C(=O)c3ccc(C[C@@H]4CC[C@H]([C@H](O)c5ccccc5)N4)cc3)CC21` (stereo partly shown) [Example 238], with 10 to 99.9 nM.

The same assay, now with this note: Table 8; Beta-3 agonist in vitro functional assay; read-out: Human β3 agonist functional activity.
On to `O=C(c1ccc(C[C@@H]2CC[C@H]([C@H](O)c3ccccc3)N2)cc1)N1CCC2(CC1)OC(C1CC1)c1ccccc12` (stereo partly shown) [Example 308], for which the EC50 fell in the range of 10 to 99.9 nM. On to `CC1(C)COC(=O)C12CCN(C(=O)c1ccc(C[C@@H]3CC[C@H]([C@H](O)c4ccccc4)N3)cc1)CC2` [Example 298], for which the EC50 is 1 to 9.9 nM. The same measure, in the same setting: the figure for `O=C1NC2(CCN(C(=O)c3ccc(C[C@@H]4CC[C@H]([C@H](O)c5ccccc5)N4)cc3)CC2)CO1` [Example 271] is 100 to 999 nM; for `O=C(c1ccc(C[C@@H]2CC[C@H]([C@H](O)c3ccccc3)N2)cc1)N1CCC2(CCNC2=O)CC1` [Example 250] it is 10 to 99.9 nM.

As to `O=C(c1ccc(C[C@@H]2CC[C@H]([C@H](O)c3ccccc3)N2)cc1)N1CCC2(CC1)C(=O)NCC2c1ccccc1` (stereo partly shown) [Example 261], the EC50 is under 1 nM.

For `O=C1CC2(CCN(C(=O)c3ccc(C[C@@H]4CC[C@H]([C@H](O)c5cccnc5)N4)cc3)CC2)Sc2ccccc21` [Example 327], the EC50 is 10 to 99.9 nM.

Turning to `O=C(c1ccc(CC2CCC(C(O)c3ccccc3)N2)cc1)N1CCC2(CCCC2=NO)CC1` (stereo not shown) [Example 317], the EC50 is 10 to 99.9 nM. Regarding `CC1CC2(CCN(C(=O)c3ccc(C[C@@H]4CC[C@H]([C@H](O)c5ccccc5)N4)cc3)CC2)OC1=O` (stereo partly shown) [Example 274], the EC50 was 10 to 99.9 nM. For `O=C(c1ccc(C[C@@H]2CC[C@H]([C@H](O)c3ccccc3)N2)cc1)N1CCC2(CC1)C(=O)NCC2c1ccccc1C(F)(F)F` (stereo partly shown) [Example 265], the EC50 was 1 to 9.9 nM. As to `O=C1CC(c2ccccc2)C2(CCN(C(=O)c3ccc(C[C@@H]4CC[C@H]([C@H](O)c5ccccc5)N4)cc3)CC2)O1` (stereo partly shown) [Example 280], the EC50 lay in the range of 1 to 9.9 nM.

`Cn1nnnc1C1(C)CCN(C(=O)c2ccc(C[C@@H]3CC[C@H]([C@H](O)c4ccccc4)N3)cc2)CC1` [Example 244]: the EC50 is 100 to 999 nM.

The assay is the same for the next values; noted with them: Table 9; Beta-3 agonist in vitro functional assay; read-out: Human β3 agonist functional activity.
With `O=C(c1ccc(C[C@@H]2CC[C@H]([C@H](O)c3ccccc3)N2)cc1)N1CCN(Cc2ncco2)CC1` [Example 392], the EC50 was in the range of 10 to 99.9 nM. Same read-out and setting: then `O=C(c1ccc(C[C@@H]2CC[C@H]([C@H](O)c3ccccc3)N2)cc1)N1CCN(c2ncccn2)CC1` [Example 370], with 100 to 999 nM; and `O=C(c1ccc(C[C@@H]2CC[C@H]([C@H](O)c3ccccc3)N2)cc1)N1CCN(Cc2ccccc2F)CC1` [Example 410], with 10 to 99.9 nM. Regarding `CC(c1ncccc1F)N1CCN(C(=O)c2ccc(C[C@@H]3CC[C@H]([C@H](O)c4ccccc4)N3)cc2)CC1` (stereo partly shown) [Example 425], the EC50 is 10 to 99.9 nM. Same read-out and setting: the figure for `COC(=O)COc1cccnc1N1CCN(C(=O)c2ccc(C[C@@H]3CC[C@H]([C@H](O)c4ccccc4)N3)cc2)CC1` [Example 368] is 10 to 99.9 nM; for `CC(c1ccccn1)N1CCN(C(=O)c2ccc(CC3CCC(C(O)c4ccccc4)N3)cc2)CC1` (stereo not shown) [Example 430] it is 1 to 9.9 nM. The same measure, in the same setting: then `O=C(c1ccc(C[C@@H]2CC[C@H]([C@H](O)c3ccccc3)N2)cc1)N1CCN(c2ccc[nH]c2=O)CC1` [Example 387], with 10 to 99.9 nM. Same read-out and setting: the figure for `Cc1nnc(C(C)N2CCN(C(=O)c3ccc(C[C@@H]4CC[C@H]([C@H](O)c5ccccc5)N4)cc3)CC2)o1` (stereo partly shown) [Example 424] is 100 to 999 nM; for `O=C(c1ccc(C[C@@H]2CC[C@H]([C@H](O)c3ccccc3)N2)cc1)N1CCN(Cc2ccn[nH]2)CC1` [Example 395] it is 10 to 99.9 nM; for `CC(C)(c1ccccc1F)N1CCN(C(=O)c2ccc(C[C@@H]3CC[C@H]([C@H](O)c4ccccc4)N3)cc2)CC1` [Example 412] it is 1 to 9.9 nM.

`COC(=O)c1cccnc1N1CCN(C(=O)c2ccc(C[C@@H]3CC[C@H]([C@H](O)c4ccccc4)N3)cc2)CC1` [Example 366]: the EC50 fell in the range of 10 to 99.9 nM.

Staying with this assay, now noted: Table 10; Beta-3 agonist in vitro functional assay; read-out: Human β3 agonist functional activity.
`CC(C(=O)N(C)C(C)(C)C)N1CCN(C(=O)c2ccc(C[C@@H]3CC[C@H]([C@H](O)c4ccccc4)N3)cc2)CC1` (stereo partly shown) [Example 517]: the EC50 was 100 to 999 nM.

Regarding `CC(C(=O)N1CC(F)C1)N1CCN(C(=O)c2ccc(C[C@@H]3CC[C@H]([C@H](O)c4ccccc4)N3)cc2)CC1` (stereo partly shown) [Example 472], the EC50 fell in the range of 1 to 9.9 nM.

As to `CC(C(=O)NC1CCS(=O)(=O)CC1)N1CCN(C(=O)c2ccc(C[C@@H]3CC[C@H]([C@H](O)c4ccccc4)N3)cc2)CC1` (stereo partly shown) [Example 469], the EC50 was in the range of 10 to 99.9 nM. Turning to `COCCNC(=O)C(C)N1CCN(C(=O)c2ccc(C[C@@H]3CC[C@H]([C@H](O)c4ccccc4)N3)cc2)CC1` (stereo partly shown) [Example 442], the EC50 lay within 100 to 999 nM.

`CC(C(=O)N1CCc2ccc(F)cc2C1)N1CCN(C(=O)c2ccc(C[C@@H]3CC[C@H]([C@H](O)c4ccccc4)N3)cc2)CC1` (stereo partly shown) [Example 509]: the EC50 is 1 to 9.9 nM. On the same count and under the same terms, then `CC1CCN(C(=O)C(C)N2CCN(C(=O)c3ccc(C[C@@H]4CC[C@H]([C@H](O)c5ccccc5)N4)cc3)CC2)CC1` (stereo partly shown) [Example 488], with 100 to 999 nM; and `CC(C(=O)N1C(C)CCC1C)N1CCN(C(=O)c2ccc(C[C@@H]3CC[C@H]([C@H](O)c4ccccc4)N3)cc2)CC1` (stereo partly shown) [Example 479], with 10 to 99.9 nM. As for `COC[C@H](C)NC(=O)C(C)N1CCN(C(=O)c2ccc(C[C@@H]3CC[C@H]([C@H](O)c4ccccc4)N3)cc2)CC1` (stereo partly shown) [Example 446], the EC50 is 10 to 99.9 nM. On to `CC(C(=O)N1CCc2ccc(Cl)cc2C1)N1CCN(C(=O)c2ccc(C[C@@H]3CC[C@H]([C@H](O)c4ccccc4)N3)cc2)CC1` (stereo partly shown) [Example 510], for which the EC50 was 1 to 9.9 nM. On to `CC(C(=O)N(C)C(C1CC1)C1CC1)N1CCN(C(=O)c2ccc(C[C@@H]3CC[C@H]([C@H](O)c4ccccc4)N3)cc2)CC1` (stereo partly shown) [Example 523], for which the EC50 fell in the range of 10 to 99.9 nM. Turning to `CC(C(=O)NC1CCOCC1)N1CCN(C(=O)c2ccc(C[C@@H]3CC[C@H]([C@H](O)c4ccccc4)N3)cc2)CC1` (stereo partly shown) [Example 468], the EC50 is 100 to 999 nM. Still for that read-out and setting: the figure for `CCC(C)(C)NC(=O)C(C)N1CCN(C(=O)c2ccc(C[C@@H]3CC[C@H]([C@H](O)c4ccccc4)N3)cc2)CC1` (stereo partly shown) [Example 439] is 1 to 9.9 nM; for `CC(C(=O)N(C)C)N1CCN(C(=O)c2ccc(C[C@@H]3CC[C@H]([C@H](O)c4ccccc4)N3)cc2)CC1` (stereo partly shown) [Example 513] it is 1 to 9.9 nM.

Still in this assay, the particulars now being: Table 11; cAMP, CHO cells; read-out: Human β3 agonist functional activity.
For the molecule `O=C(c1ccc(C[C@@H]2CC[C@H]([C@H](O)c3ccccc3)N2)cc1)N1CCn2cnnc2C1` [Example 548], the EC50 was in the range of 100 to 999 nM. Regarding `C[C@H]1CN(C(=O)c2ccc(C[C@@H]3CC[C@H]([C@H](O)c4ccccc4)N3)cc2)CCN1Cc1nc2ccccc2o1` [Example 531], the EC50 fell in the range of 10 to 99.9 nM.

The assay is the same for the next values; noted with them: Table 12; human β3 functional activity given as ranges; read-out: Human β3 agonist functional activity.
As to `CC(c1ccccc1F)N1CCN(C(=O)c2ccc(CC3CCC(C(O)c4ccccc4)N3)cc2)CC1` (single isomer, unassigned) [Example 574], the EC50 was 10 to 99.9 nM. Turning to `O=C(c1ccc(CC2CCC(C(O)c3ccccc3)N2)cc1)N1CCN(C2CCN(c3ccccc3)C2=O)CC1` (single isomer, unassigned) [Example 606], the EC50 fell in the range of 10 to 99.9 nM. On to `CC(c1ccn(C)n1)N1CCN(C(=O)c2ccc(CC3CCC(C(O)c4ccccc4)N3)cc2)CC1` (single isomer, unassigned) [Example 578], for which the EC50 was 100 to 999 nM.

Values taken from patent US8354403B2, “Pyrrolidine derived beta 3 adrenergic receptor agonists” (Merck Sharp & Dohme Corp., priority 2009, dated 2013).
